Assays:
HeLa cells = test: Cytotoxicity, MTT test; type: cell-based
Description: The toxic effect of the substances was investigated using the MTT test. To this end, HeLa cells were seeded at a density of 2×10^4 cells per cavity of a 96-well titer plate and cultured for two days. Liposomes of varying composition (see Table) were added to the cells at a concentration of 0.5 mM and incubated with these cells for 24 hours. Subsequently, the MTT test was performed.

[1] = Chelating of metal ions (zeta potential of liposomes); type: physicochemical; details: compound in the liposome membrane
Description: Liposomes are produced as in Example 4. 40 μl of these liposomes are suspended in 7 ml of buffer (10 mM potassium acetate, 10 mM HEPES, pH 4.2 or pH 7.5). Subsequently, the metal ions are added with the concentrations as indicated, and the zeta potential of the liposomes is measured.

Compound	toxic effect in the MTT test (in words) (HeLa cells)	chelating of metal ions by liposomes including the compound (in words) [1]
CC(C)CCC[C@@H](C)[C@H]1CC[C@H]2[C@@H]3CC=C4C[C@@H](OC(=O)NCCN(C)C)CC[C@]4(C)[C@H]3CC[C@]12C [DC-Chol, N,N-Dimethyl (2-aminoethyl) carbamoylcholesterol]	significant cytotoxic effect	
CCCCCCCC/C=C\CCCCCCCC(=O)OCC(C[N+](C)(C)C)OC(=O)CCCCCCC/C=C\CCCCCCCC (stereo not shown) [DOTAP]	significant cytotoxic effect	
Histaminylethaneamine-cholesterol hemisuccinate [His-Chol]	lesser toxic effects	capable of chelating metal ions
